Results from patent publication US12419874B2, “GLP-1R agonist compound and use thereof” (Chongqing Pharmaceutical Research Institute Co., Ltd., priority 2024, dated 2025).

Columns and labels:
[1] = target: T1, GLP-1R (Homo sapiens, UniProt P43220); test: GLP-1R agonistic activity by One-Lite luciferase assay in HEK293-GLP-1R-luc cells (Example 59); assay type: cell-based; details: 6 h incubation, read-out: cAMP EC50
How it was run: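 HEK293 cells stably expressing GLP-1R with a cAMP-responsive luciferase reporter, 30000 cells/well, exposed to compound for 6 h at 37 °C. Chemiluminescence read after 3 min with One-Lite substrate at room temperature; % activity normalised to positive and vehicle controls, EC50 from a four-parameter dose-response fit.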

[2] = tested on: GLP-1R humanized C57BL/6N mice fed with high-fat diets; test: In vivo efficacy on body weight and food intake in high-fat diet hGLP-1R mice; details: for Cumulative Food Intake on Day 27 / Change Rate of Body Weight on Day 27: gavage once daily; for Change Rate of Body Weight on Day 27: corrected by Vehicle
Description: The effects of long-term administration of the compounds of the present disclosure on the weight and food intake of GLP-1R humanized C57BL/6N mice fed with high-fat diets were evaluated.
• five-week-old male C57BL/6N hGLP-1R mice; • 60% high-fat diet (HFD); electronic balance. 3. Experimental Method • (1) C57BL/6N_hGLP-1R mice were fed with 60% high-fat diets until the end of the experiment. • (2) At the 10th week of HFD feeding, the model mice were randomly divided into groups according to their body weight, with 6 to 7 mice in each group. Subsequently, the single-caged mice were adaptively fed for 2 weeks. The first group was Vehicle group (Vehicle: 10% PEG 400+10% propylene glycol+80% glycine-NaOH buffer), and administered with the Vehicle; the remaining groups were drug treatment groups; the duration of administration was 27 days. • (3) The day of drug administration was defined as Day 0. At each administration, the animals were weighed and the data were recorded, and the mice were treated depending upon their body weight. • (4) The food intake of the mice in each group was measured once a day from Day 0 of the experiment. Specifically, the diets were changed after each weighing and administration, and the addition amounts and residual amounts thereof were recorded. 4. Experimental Data Processing and Statistical Analysis
The rates of change in the body weight of mice after administration were summarized and statistically analyzed.
The rate of change in the body weight corrected by Vehicle was calculated: (((BWt/BW0)−1)−(BWt-vec-avg))*100%;
BWt represented the body weight of mouse in drug treatment group on Day t; BW0 represented the body weight of mouse in drug treatment group on Day 0; BWt-vec-avg represented the average body weight of mice in Vehicle group on Day t for drug treatment groups.
The cumulative food intake of mice after drug administration was summarized and statistically analyzed.
Cumulative food intake was calculated: addition amounts (g)—residual amounts (g).
The cumulative food intake was the sum of daily food intake of each animal during the period of administration.

[3] = In vivo pharmacokinetics in rats, oral; design: species or system SD rats; details: for AUC(0-t) / Cmax / half-life: rat, plasma, SD rats, PO
Description: The compounds of the present disclosure were formulated with […]+90% 100 mM glycine-64 mM NaOH, and orally administered to fasted SD rats at a dose of 1 mg/kg or 5 mg/kg, respectively. At different time points (0.25, 0.5, 1.0, 2.0, 4.0, 5.0, 6.0, 7.0, 8.0, and 24 h) after administration, about 50 μL of blood samples were collected from veins into anticoagulant tubes containing EDTA-K2, and centrifuged to separate plasma. The plasma concentrations of the compounds were determined by LC-MS/MS. WinNonlin was used to calculate the pharmacokinetic parameters by using the non-compartmental analysis, and the experimental results were listed in Table 9.

[4] = In vivo pharmacokinetics in Macaca fascicularis, intravenous
Description: A clear solution of “example compound 67 in WO2018056453” in 10% PEG/90% 100 mM glycine-NaOH and a clear solution of “Compound 1” in 10% PEG/90% 100 mM glycine-NaOH were prepared. The above solutions were injected into subcutaneous veins of the fore limbs of male Macaca fascicularis (n=2) at a dose of 0.12 mg/kg, respectively. At different time points (0.083, 0.25, 0.5, 1.0, 2.0, 4.0, 8.0, 24.0, and 36 h) after administration, blood samples were collected from veins into anticoagulant tubes containing EDTA-K2, and centrifuged to separate plasma.
The drug concentrations in the plasma were determined by the LC-MS/MS method, and the pharmacokinetic software (e.g., winNonlin Version 6.3) was used to calculate the related pharmacokinetic parameters as shown in Table 10 by using the log-linear trapezoidal rule of the non-compartmental analysis.

[5] = target: T1, GLP-1R; test: GLP-1R agonistic activity by cAMP detection kit in HEK293-GLP-1R-luc cells (Example 58); assay type: cell-based; details: 30 min incubation
Description: The agonistic activities of the compounds of the present disclosure on GLP-1R were evaluated by detecting the generation of cAMP.
• (1) Cell line: HEK293-GLP-1R-luc Stable Cell Line (Cobioer, CBP71117); • (2) Culture medium: DMEM+10% FBS (Gibco); • (3) Kit: cAMP detection kit (PerkinElmer). 2. Experimental Procedures • (1) HEK293-GLP1R cells were inoculated in a 384-well plate at a density of 2000 cells per well; • (2) 4× working solution of each compound was formulated; • (3) 5 μL of 4× working solution of each compound was added to corresponding well and incubated at 37° C. for 30 min; • (4) 10 μL of Eu-cAMP tracer diluted with Lysis Buffer (1/50) was added to each well; • (5) 10 μL of Ulight-anti-cAMP diluted with Lysis Buffer (1/150) was added to each well; • (6) The plate was incubated at room temperature for 1 h; • (7) The plate was read by a multimode microplate reader (excitation wavelength: 320 nm; emission wavelength: 665 nm and 620 nm). 3. Data Analysis • (1) % Activity was calculated by the following formula: % Activity=100−(Signalcmpd−SignalAve-PC)/(SignalAve-VC−SignalAve-PC)×100 • (2) The dose-response curve was plotted to calculate EC50: Y=Bottom+(Top−Bottom)/(1+10^(Log EC50−X)*HillSlope)) • X: log of agonist concentration; Y: Activity. 4. Experimental Results

[6] = rats, oral, versus example compound 67 in WO2018056453, in words
[7] = Macaca fascicularis, versus example compound 67 in WO2018056453, in words
[8] = cynomolgus monkey, plasma, male Macaca fascicularis, 0.12 mg/kg

T1 sequence (P43220 24-463): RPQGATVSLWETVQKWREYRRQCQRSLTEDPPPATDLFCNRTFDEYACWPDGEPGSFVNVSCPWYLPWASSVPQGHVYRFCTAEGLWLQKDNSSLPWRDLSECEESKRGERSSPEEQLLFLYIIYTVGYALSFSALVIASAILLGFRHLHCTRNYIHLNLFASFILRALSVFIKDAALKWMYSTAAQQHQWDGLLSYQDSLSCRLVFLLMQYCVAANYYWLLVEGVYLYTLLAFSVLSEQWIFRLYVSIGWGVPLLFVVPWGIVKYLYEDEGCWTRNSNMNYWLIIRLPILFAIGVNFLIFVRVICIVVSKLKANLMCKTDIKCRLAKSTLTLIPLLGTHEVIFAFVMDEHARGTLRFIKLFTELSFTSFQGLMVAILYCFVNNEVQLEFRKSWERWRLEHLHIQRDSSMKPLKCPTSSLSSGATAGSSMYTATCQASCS

EC50 [1]: ≤ 0.02 µM
AUC(0-t) ([3]; 1 mg/kg): 2300 ng·h/mL
Cmax ([3]; 1 mg/kg): 213 ng/mL
half-life ([3]; 1 mg/kg): 10 h
AUC(0-t) ([3]; 5 mg/kg): 11800 ng·h/mL
Cmax ([3]; 5 mg/kg): 1080 ng/mL
half-life ([3]; 5 mg/kg): 12.9 h
maximum plasma concentration Cmax compared with the control compound [3, 6]: higher
oral exposure AUC compared with the control compound [3, 6]: higher
clearance (Cl) compared with the control compound [4, 7]: lower
exposure (AUC) compared with the control compound [4, 7]: higher
half-life (T1/2) compared with the control compound [4, 7]: longer
AUC(0-t) [4, 8]: 754 ng·h/mL
clearance [4, 8]: 2.63 mL/min/kg
half-life [4, 8]: 6.08 h
EC50 [5]: ≤ 0.0001 µM
SMILES: Cc1cc(-n2nc3c(c2-n2ccn(-c4ccc5c(cnn5C)c4F)c2=O)[C@H](C)N(C(=O)c2cc4cc([C@H]5CCOC(C)(C)C5)ccc4n2[C@@]2(c4noc(=O)[nH]4)C[C@@H]2C)CC32CC2)cc(C)c1F [Compound 1]
Cumulative Food Intake on Day 27 ([2]; 0.3 mpk): 73.91 ± 6.71 g
Change Rate of Body Weight on Day 27 ([2]; 0.3 mpk): −15.04 ± 1.90%
Cumulative Food Intake on Day 27 ([2]; 1.5 mpk): 70.01 ± 5.88 g
Change Rate of Body Weight on Day 27 ([2]; 1.5 mpk): −18.46 ± 1.98%
Cumulative Food Intake on Day 27 ([2]; 3.0 mpk): 62.75 ± 6.97 g
Change Rate of Body Weight on Day 27 ([2]; 3.0 mpk): −23.78 ± 1.61%
reduction of the body weight and inhibition of the food intake ([2]; long-term administration, 0.3 to 3 mpk, in words): excellent effects
